Values joined by “and” are separate entries in the source; they are usually repeats but may differ in a detail not shown here. Equal values may be shown once. Inconclusive results and toxic doses are left out. Rule for the calls: active = survival T/C of 150% or more; inactive = T/C below 125% in these data.
System: CD2F1 mice, L1210 leukemia ip, survival T/C
Experiment: NCI In Vivo Anticancer Drug Screen. Data for tumor model L1210 Leukemia (intraperitoneal) in CD2F1 (CDF1) mice
Conditions: endpoint: mean survival time, higher = longer survival
How it was run: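 Each value reflects a quotient of treated over vehicle control outcomes in mice with a transplanted tumor.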

[1] = dose: 100.0 mg/kg/injection, schedule: Q01DX009 (ip), vehicle: saline with Tween-80
[2] = dose: 200.0 mg/kg/injection, schedule: Q01DX009 (ip), vehicle: saline with Tween-80
[3] = dose: 100.0 mg/kg/injection, schedule: Q04DX003 (ip), vehicle: Klucel (hydroxypropylcellulose) (HPC)
[4] = dose: 200.0 mg/kg/injection, schedule: Q04DX003 (ip), vehicle: Klucel (hydroxypropylcellulose) (HPC)
[5] = dose: 100.0 mg/kg/injection, schedule: Q01DX001 (ip), vehicle: saline with Tween-80
[6] = dose: 200.0 mg/kg/injection, schedule: Q01DX001 (ip), vehicle: saline with Tween-80
[7] = dose: 400.0 mg/kg/injection, schedule: Q01DX001 (ip), vehicle: saline with Tween-80
[8] = dose: 100.0 mg/kg/injection, schedule: Q04DX003 (ip), vehicle: saline with Tween-80
[9] = dose: 200.0 mg/kg/injection, schedule: Q04DX003 (ip), vehicle: saline with Tween-80
[10] = dose: 400.0 mg/kg/injection, schedule: Q01DX009 (ip), vehicle: saline with Tween-80
[11] = dose: 400.0 mg/kg/injection, schedule: Q04DX003 (ip), vehicle: saline with Tween-80

Measured: T/C

C[C@]12CC[C@H]3[C@@H](CCC4=C[C@@H](OC5OCC(OC6OC(CO)C(O)C(O)C6O)C(O)C5O)CC[C@@]43C=O)[C@@]1(O)CCC2C1=CC(=O)OC1 (some centres undefined)
inactive: dose: 0.16 mg/kg/injection, schedule: Q01DX009 (ip), vehicle: Klucel (hydroxypropylcellulose) (HPC) 101 % of control | dose: 0.31 mg/kg/injection, schedule: Q01DX009 (ip), vehicle: Klucel (hydroxypropylcellulose) (HPC) 101 % of control | dose: 0.62 mg/kg/injection, schedule: Q01DX009 (ip), vehicle: Klucel (hydroxypropylcellulose) (HPC) 98 % of control | dose: 0.63 mg/kg/injection, schedule: Q01DX009 (ip), vehicle: Klucel (hydroxypropylcellulose) (HPC) 102 % of control | dose: 1.25 mg/kg/injection, schedule: Q01DX009 (ip), vehicle: Klucel (hydroxypropylcellulose) (HPC) 98 % of control and 107 % of control | dose: 2.5 mg/kg/injection, schedule: Q01DX009 (ip), vehicle: Klucel (hydroxypropylcellulose) (HPC) 93 % of control and 95 % of control | dose: 5.0 mg/kg/injection, schedule: Q01DX009 (ip), vehicle: Klucel (hydroxypropylcellulose) (HPC) 102 % of control | dose: 10.0 mg/kg/injection, schedule: Q01DX009 (ip), vehicle: Klucel (hydroxypropylcellulose) (HPC) 108 % of control | dose: 20.0 mg/kg/injection, schedule: Q01DX009 (ip), vehicle: Klucel (hydroxypropylcellulose) (HPC) 113 % of control | dose: 156.0 micrograms/kg/injection, schedule: Q01DX009 (ip), vehicle: Klucel (hydroxypropylcellulose) (HPC) 104 % of control | dose: 312.0 micrograms/kg/injection, schedule: Q01DX009 (ip), vehicle: Klucel (hydroxypropylcellulose) (HPC) 110 % of control | dose: 625.0 micrograms/kg/injection, schedule: Q01DX009 (ip), vehicle: Klucel (hydroxypropylcellulose) (HPC) 100 % of control | dose: 1250.0 micrograms/kg/injection, schedule: Q01DX009 (ip), vehicle: Klucel (hydroxypropylcellulose) (HPC) 92 % of control | dose: 2500.0 micrograms/kg/injection, schedule: Q01DX009 (ip), vehicle: Klucel (hydroxypropylcellulose) (HPC) 101 % of control | dose: 5000.0 micrograms/kg/injection, schedule: Q01DX009 (ip), vehicle: Klucel (hydroxypropylcellulose) (HPC) 101 % of control

CCC(=O)/C(=C\c1ccccc1Cl)C(C)=O
inactive: [1] 100 % of control | [2] 97 % of control

O=[As](O)(CC(O)c1ccccc1)c1cccc(Cl)c1 (centres undefined)
inactive: dose: 6.25 mg/kg/injection, schedule: Q04DX003 (ip), vehicle: saline with Tween-80 104 % of control | dose: 12.5 mg/kg/injection, schedule: Q04DX003 (ip), vehicle: saline with Tween-80 119 % of control

C#CCNC1=C(C)C(=O)C2=C(C1=O)[C@H](COC(N)=O)[C@]1(O)[C@H]3[C@@H](CN21)N3C (some centres undefined)
inactive: dose: 1.5 mg/kg/injection, schedule: Q01DX001 (ip), vehicle: water 104 % of control | dose: 3.0 mg/kg/injection, schedule: Q01DX001 (ip), vehicle: water 102 % of control | dose: 6.0 mg/kg/injection, schedule: Q01DX001 (ip), vehicle: water 100 % of control | dose: 12.0 mg/kg/injection, schedule: Q01DX001 (ip), vehicle: water 110 % of control | dose: 24.0 mg/kg/injection, schedule: Q01DX001 (ip), vehicle: water 110 % of control

c1ccc(/C(=N\Nc2nc3ccccc3s2)c2ccncc2)cc1
inactive: [3] 92 % of control | [4] 89 % of control | dose: 400.0 mg/kg/injection, schedule: Q04DX003 (ip), vehicle: Klucel (hydroxypropylcellulose) (HPC) 92 % of control

C1OCC2[CH2][Hg][S][Hg][CH2]C1O2
inactive: dose: 4.0 mg/kg/injection, schedule: Q01DX015 (ip), vehicle: saline 109 % of control | dose: 8.0 mg/kg/injection, schedule: Q01DX015 (ip), vehicle: saline 107 % of control

CCN(CC)n1c(=O)[nH]n(CC)c1=O
inactive: [5] 101 % of control | dose: 100.0 mg/kg/injection, schedule: Q04DX002 (ip), vehicle: saline with Tween-80 101 % of control | [6] 97 % of control | dose: 200.0 mg/kg/injection, schedule: Q04DX002 (ip), vehicle: saline with Tween-80 93 % of control | [7] 100 % of control | dose: 400.0 mg/kg/injection, schedule: Q04DX002 (ip), vehicle: saline with Tween-80 101 % of control

Clc1cc(Cl)c(OCC#CI)c(Cl)c1Cl
inactive: dose: 50.0 mg/kg/injection, schedule: Q01DX001 (ip), vehicle: carboxymethylcellulose (CMC) 100 % of control | dose: 100.0 mg/kg/injection, schedule: Q01DX001 (ip), vehicle: carboxymethylcellulose (CMC) 100 % of control | dose: 200.0 mg/kg/injection, schedule: Q01DX001 (ip), vehicle: carboxymethylcellulose (CMC) 100 % of control | dose: 400.0 mg/kg/injection, schedule: Q01DX001 (ip), vehicle: carboxymethylcellulose (CMC) 103 % of control

CCCCCCCCCCCCCCCCOc1ccccc1CNc1cccc(S(=O)(=O)F)c1
inactive: [1] 94 % of control | [8] 95 % of control | [2] 91 % of control | [9] 94 % of control | [10] 87 % of control | [11] 100 % of control

O=[N+]([O-])c1ccccc1-c1cc(-c2ccccc2)nn1-c1ccccc1
inactive: [1] 102 % of control | [8] 98 % of control | [2] 103 % of control | [9] 98 % of control | [10] 97 % of control | [11] 95 % of control

Nc1ncnc2c1c1c(=O)[nH]nnc1n2C1OC(CO)C(O)C1O (centres undefined)
inactive: dose: 3.13 mg/kg/injection, schedule: Q01DX005 (ip), vehicle: water 101 % of control | dose: 6.25 mg/kg/injection, schedule: Q01DX005 (ip), vehicle: water 103 % of control | dose: 12.5 mg/kg/injection, schedule: Q01DX005 (ip), vehicle: water 92 % of control | dose: 12.5 mg/kg/injection, schedule: Q01DX009 (ip), vehicle: distilled water + Tween-80 113 % of control | dose: 25.0 mg/kg/injection, schedule: Q01DX005 (ip), vehicle: water 107 % of control | dose: 25.0 mg/kg/injection, schedule: Q01DX009 (ip), vehicle: distilled water + Tween-80 122 % of control | dose: 50.0 mg/kg/injection, schedule: Q01DX005 (ip), vehicle: water 105 % of control | dose: 50.0 mg/kg/injection, schedule: Q01DX009 (ip), vehicle: distilled water + Tween-80 122 % of control | dose: 100.0 mg/kg/injection, schedule: Q01DX005 (ip), vehicle: water 107 % of control

OCC1OC(n2cnc3c(NCCc4ccc(O)c(O)c4)ncnc32)C(O)C1O (centres undefined)
inactive: dose: 12.5 mg/kg/injection, schedule: Q01DX005 (ip), vehicle: saline with Tween-80 104 % of control | dose: 25.0 mg/kg/injection, schedule: Q01DX005 (ip), vehicle: saline with Tween-80 109 % of control | dose: 50.0 mg/kg/injection, schedule: Q01DX005 (ip), vehicle: saline with Tween-80 116 % of control

COC(=O)C(Cl)(Cl)c1nc(NC(C)=O)[nH]c(=O)c1Cl
inactive: [8] 95 % of control | [9] 98 % of control | [11] 91 % of control

O/N=C\c1cccc2ccccc12
inactive: [8] 97 % of control | [9] 101 % of control

CC(=O)Nc1c(N=Cc2ccc([N+](=O)[O-])cc2)cc2c3c(cccc13)CC2
inactive: dose: 50.0 mg/kg/injection, schedule: Q04DX003 (ip), vehicle: Klucel (hydroxypropylcellulose) (HPC) 91 % of control | [3] 96 % of control | [4] 94 % of control

COC(=O)C1(C)CCCC2(C)C1CCC13C(O)C(C(C)C)C1CC23 (centres undefined)
inactive: [5] 86 % of control | [6] 91 % of control | [7] 97 % of control

Cc1nn(-c2ccccc2)c2[nH]cnc(=S)c12
inactive: dose: 12.5 mg/kg/injection, schedule: Q01DX005 (ip), vehicle: other 86 % of control | dose: 25.0 mg/kg/injection, schedule: Q01DX005 (ip), vehicle: other 91 % of control | dose: 50.0 mg/kg/injection, schedule: Q01DX005 (ip), vehicle: other 92 % of control | dose: 100.0 mg/kg/injection, schedule: Q01DX005 (ip), vehicle: other 97 % of control | dose: 200.0 mg/kg/injection, schedule: Q01DX005 (ip), vehicle: other 93 % of control

COc1cccc2c1CCC1C2CC=C2CC3(CCC21C)OCCO3 (centres undefined)
inactive: dose: 100.0 mg/kg/injection, schedule: Q04DX003 (sc), vehicle: steriod suspending solution 97 % of control | dose: 200.0 mg/kg/injection, schedule: Q04DX003 (sc), vehicle: steriod suspending solution 92 % of control | dose: 400.0 mg/kg/injection, schedule: Q04DX003 (sc), vehicle: steriod suspending solution 94 % of control

CCOP1(=O)OCC(C(C)(C)C)CO1 (centres undefined)
inactive: dose: 12.5 mg/kg/injection, schedule: Q04DX003 (ip), vehicle: Klucel (hydroxypropylcellulose) (HPC) 102 % of control | dose: 25.0 mg/kg/injection, schedule: Q04DX003 (ip), vehicle: Klucel (hydroxypropylcellulose) (HPC) 102 % of control

Reference: PubChem BioAssay AID256 (DTP/NCI, 2004)
